Reference: US8642657B2 (Gruenenthal GmbH, priority 2003, dated 2014)
pKi: −log10 of the molar value.

Legend:
rat VR1 [1] = target: T1, rat VR1 (Rattus norvegicus, UniProt O35433); assay: [3H]resiniferatoxin (RTX) competition binding assay, VR1-transfected CHO cells; conditions: for Ki: competition with [3H]RTX, rat VR1 in CHO cells, read-out: Ki (nM) Binding Affinity
T1 construct: expressed in transfected cells
Protocol: The pUHG102 VR1 plasmid was transfected into CHO cells containing the pTet Off regulatory plasmid (Clontech). In these cells, expression of the VR1 is repressed in the presence of tetracycline but is induced upon removal of the antibiotic. Stable clones were isolated in culture medium containing puromycin (10 μg/mL) and maintained in HAM F12 medium supplemented with tetracycline (1 μg/mL), 5 μg/ml geniticin, 25 mM HEPES, 10% FBS. Cells utilized for assays were grown in culture medium without antibiotic for 48 h before use. Cells were seeded in T75 cell culture flasks in media without antibiotics and grown to approximately 90% confluence. The flasks were then washed with PBS and harvested in 0.25% trypsin, 1 mM EDTA. The cells were pelleted by gentle centrifugation and stored at −20° C. until assay.
Competition Binding Assay
Binding studies with [^3H]resiniferatoxin (RTX) were carried out as described previously with minor modifications (Szallasi et al., 1992). Binding assay mixtures were set up on ice and contained 50-100 pM [^3H]RTX, various concentrations of competing ligands, 0.25 mg/mL BSA (Cohn fraction V), and about 5×10^5 VR1-transfected cells. The final volume was adjusted to 350 μL with DPBS with Ca^2+ and Mg^2+ and 0.25 mg/mL bovine serum albumin. Non-specific binding was determined in the presence of 100 nM nonradioactive RTX. The binding reaction was initiated by transferring the assay mixtures to a 37° C. water bath and was terminated after a 60 min incubation period by cooling the tubes on ice. To reduce non-specific binding, 200 μg/ml α-glycoprotein was added. Membrane-bound RTX was then separated from the free by pelleting the membranes in a Beckman 12 benchtop centrifuge (15 min, maximal velocity), the tips of the tubes containing the pellets were cut off, and the radioactivity was determined by scintillation counting. Equilibrium binding parameters (Ki and cooperativity) were determined by fitting the Hill equation to the measured values with the aid of the program MicroCal Origin 6.0.
(§1) Initial stocks were dissolved in DMSO. For the binding assays, compounds were diluted in with DPBS with Ca^2+ and Mg^2+ and 0.25 mg/mL bovine serum albumin. For the calcium uptake assays, compounds were diluted in DMEM with 0.25 mg/mL bovine serum albumin.

rat VR1 [2] = target: T1, rat VR1; assay: 45Ca2+-uptake assay in CHO/VR1 cells, antagonism of capsaicin-stimulated uptake; assay type: cell-based; conditions: 45Ca2+ uptake stimulated by 50 nM capsaicin
Protocol: as §1
Molecules were characterized to determine whether they were full agonists, partial agonists, or antagonists. For studies of ^45Ca^2+ uptake by CHO/VR1 cells (Tet-off cells), the cells were plated in 24-well plates to yield a cell density 20-40% of that required to produce confluence. The next day the medium was changed to remove the tetracycline and induce VR1 expression. Experiments were performed approximately 36-40 hours after induction. For ^45Ca^2+ uptake assay, cells were incubated for 5 min at 37° C. in a total volume of 400 μL of serum free DMEM (containing 1.8 mM CaCl2) in the presence of 0.25 mg/mL BSA (Sigma), 1 μCi/mL ^45Ca^2+ (5-30 Ci/g from ICN, CA), and increasing concentrations of the compound to be tested. Immediately after the incubation, extracellular ^45Ca^2+ was removed by washing the cells three times with cold DPBS (containing 1.8 mM CaCl2). Then 400 μl RIPA buffer (50 mM Tris pH 7.4; 150 mM NaCl; 1% Triton X-100; 0.1% SDS; 1% sodium deoxycholate) was added to each well in order to lyse the cells. Plates were shaken slowly for 20 min; then 306 μL of cell lysate was transferred from each well into a scintillation vial and radioactivity was determined by scintillation counting. For each data point in each experiment, four wells were assayed. Data from these experiments were analyzed by computer fit to the Hill equation. At least 3 separate experiments were carried out for each compound. In order to determine antagonist activity, studies were performed in exactly the same fashion with the exception that 50 nM capsaicin was added to the assay mixture to stimulate ^45Ca^2+ uptake.

T1 sequence (O35433 whole entry): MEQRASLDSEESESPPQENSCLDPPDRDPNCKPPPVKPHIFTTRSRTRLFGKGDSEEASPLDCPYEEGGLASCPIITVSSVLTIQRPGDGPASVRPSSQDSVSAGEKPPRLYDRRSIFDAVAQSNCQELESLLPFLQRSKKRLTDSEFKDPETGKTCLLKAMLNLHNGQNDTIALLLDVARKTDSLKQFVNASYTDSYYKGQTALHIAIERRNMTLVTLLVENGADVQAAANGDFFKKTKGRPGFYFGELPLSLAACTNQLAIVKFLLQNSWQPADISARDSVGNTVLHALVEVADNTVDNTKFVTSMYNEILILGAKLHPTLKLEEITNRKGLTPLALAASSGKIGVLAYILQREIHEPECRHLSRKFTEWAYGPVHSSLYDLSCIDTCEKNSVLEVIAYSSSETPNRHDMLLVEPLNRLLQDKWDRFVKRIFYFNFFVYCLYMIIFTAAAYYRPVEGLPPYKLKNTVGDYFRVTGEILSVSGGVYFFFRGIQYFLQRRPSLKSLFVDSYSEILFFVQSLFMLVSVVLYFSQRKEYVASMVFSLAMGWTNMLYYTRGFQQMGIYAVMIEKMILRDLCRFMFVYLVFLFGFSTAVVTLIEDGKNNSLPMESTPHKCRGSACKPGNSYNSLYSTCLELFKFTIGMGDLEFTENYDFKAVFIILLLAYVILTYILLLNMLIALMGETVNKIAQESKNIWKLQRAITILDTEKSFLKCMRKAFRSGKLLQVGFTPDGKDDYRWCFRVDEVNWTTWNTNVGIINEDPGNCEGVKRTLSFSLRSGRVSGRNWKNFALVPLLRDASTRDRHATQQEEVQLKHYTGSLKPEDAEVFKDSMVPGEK

Molecule	melting point [°C]	also measured
CC(C(=O)NCc1ccc(C(C)(C)C)cc1)c1ccc(NS(C)(=O)=O)c(C(=O)OC(C)(C)C)c1 (stereo not drawn) [1-57, N-(4-tert-Butylbenzyl)-2-[3-(t-butoxycarbonyl)-4-(methylsulfonylamino)phenyl]propionamide]	75 to 77	Ki (rat VR1 [1]): 6730 nM
CC(C(=O)NCc1ccc(C(C)(C)C)cc1)c1ccc(NS(C)(=O)=O)c(C(=O)O)c1 (stereo not drawn) [1-58, N-(4-tert-Butylbenzyl)-2-[3-carboxyl-4-(methylsulfonylamino)phenyl]propionamide]	180 to 183	
CC(C(=O)NCc1ccc(C(C)(C)C)cc1)c1ccc(NS(C)(=O)=O)c(C(=O)NCc2ccccc2)c1 (stereo not drawn) [1-60, N-(4-tert-Butylbenzyl)-2-[3-(benzylamino)carbonyl-4-(methylsulfonylamino)phenyl]propionamide]	79 to 81	Ki (rat VR1 [1]): 3710 nM
CC(C(=O)NCc1ccc(C(C)(C)C)cc1)c1ccc(NS(C)(=O)=O)c(N2CCCCC2)c1 (stereo not drawn) [1-61, N-(4-tert-Butylbenzyl)-2-[3-piperidino-4-(methylsulfonylamino)phenyl]propionamide]	125	
CC(C(=O)NCc1ccc(C(C)(C)C)cc1)c1ccc(NS(C)(=O)=O)c(N2CCOCC2)c1 (stereo not drawn) [1-62, N-(4-tert-Butylbenzyl)-2-[3-morpholino-4-(methylsulfonylamino)phenyl]propionamide]	78	
CC(C(=O)NCc1ccc(C(C)(C)C)cc1)c1ccc(NS(C)(=O)=O)c(N2CCN(C(=O)OC(C)(C)C)CC2)c1 (stereo not drawn) [1-63, N-(4-tert-Butylbenzyl)-2-[3-(N-boc)piperazino-4-(methylsulfonylamino)phenyl]propionamide]	103	
CC(C(=O)NCc1ccc(C(C)(C)C)cc1)c1ccc(NS(C)(=O)=O)c(N2CCNCC2)c1 (stereo not drawn) [1-64, N-(4-tert-Butylbenzyl)-2-[3-piperazino-4-(methylsulfonylamino)phenyl]propionamide]	92	
C[C@H](C(=O)NCc1ccc(C(C)(C)C)cc1)c1ccc(NS(C)(=O)=O)c(F)c1 [3-5, N-(4-tert-Butylbenzyl)-(2S)-2-[3-fluoro-4-(methylsulfonylamino)phenyl]propionamide]		Ki (rat VR1 [2]): 6.87 nM; pKi (rat VR1 [1]): 7.36
Cc1ccc(CNC(=O)C(C)c2ccc(NS(C)(=O)=O)c(F)c2)cc1 (stereo not drawn) [4-7, N-(4-Methylbenzyl)-2-[3-fluoro-4-(methylsulfonylamino)phenyl]propionamide]	166	
COc1ccc(CNC(=O)C(C)c2ccc(NS(C)(=O)=O)c(F)c2)cc1 (stereo not drawn) [4-9, N-(4-Methoxybenzyl)-2-[3-fluoro-4-(methylsulfonylamino)phenyl]propionamide]	138	Ki (rat VR1 [2]): 1350 nM
CC(C(=O)NC1CCCc2ccccc21)c1ccc(NS(C)(=O)=O)c(F)c1 (stereo not drawn) [4-13, N-(1,2,3,4-Tetrahydro-1-naphthalenyl)-2-[3-fluoro-4-(methylsulfonylamino)phenyl]propionamide]	116 to 117	
Cc1ccc(C=CCNC(=O)C(C)c2ccc(NS(C)(=O)=O)c(F)c2)cc1C (stereo not drawn) [4-18, N-[3-(3,4-Dimethylphenyl)-2-propenyl]-2-[3-fluoro-4-(methylsulfonylamino)phenyl]propionamide]	144 to 146	
CC(C(=O)NCCCc1ccc(Cl)cc1)c1ccc(NS(C)(=O)=O)c(F)c1 (stereo not drawn) [4-19, N-[3-(4-Chlorophenyl)propyl]-2-[3-fluoro-4-(methylsulfonylamino)phenyl]propionamide]	141 to 143	
CC(C(=O)NCC=Cc1ccc(Cl)cc1)c1ccc(NS(C)(=O)=O)c(F)c1 (stereo not drawn) [4-20, N-[3-(4-Chlorophenyl)-2-propenyl]-2-[3-fluoro-4-(methylsulfonylamino)phenyl]propionamide]	151 to 153	
CC(C(=O)NOCc1ccccc1)c1ccc(NS(C)(=O)=O)c(F)c1 (stereo not drawn) [4-21, N-Benzyloxy-2-[3-fluoro-4-(methylsulfonylamino)phenyl]propionamide]	182 to 183	Ki (rat VR1 [1]): 9420 nM
CC(C(=O)NC(c1ccccc1)c1ccccc1)c1ccc(NS(C)(=O)=O)c(F)c1 (stereo not drawn) [4-22, N-Benzhydryl-2-[3-fluoro-4-(methylsulfonylamino)phenyl]propionamide]	160 to 161	Ki (rat VR1 [1]): 5860 nM
CC(C(=O)NCC=C(c1ccccc1)c1ccccc1)c1ccc(NS(C)(=O)=O)c(F)c1 (stereo not drawn) [4-25, N-(3,3-Diphenyl-2-propenyl)-2-[3-fluoro-4-(methylsulfonylamino)phenyl]propionamide]	155 to 157	
COc1cc(C(C)C(=O)NCC(COC(=O)C(C)(C)C)Cc2ccc(C(C)(C)C)cc2)ccc1NS(C)(=O)=O (stereo not drawn) [5-6, N-[2-(4-tert-Butylbenzyl)-3-pivaloyloxypropyl]-2-[3-methoxy-4-(methylsulfonylamino)phenyl]propionamide]	54 to 57	Ki (rat VR1 [1]): 24 nM
C[C@H](C(=O)N[C@H](COC(=O)C(C)(C)C)Cc1ccccc1)c1ccc(NS(C)(=O)=O)c(F)c1 [6-2, N—[(S)-1-Benzyl-2-(pivaloyloxy)ethyl]-(S)-2-[3-fluoro-4-(methylsulfonylamino)phenyl]propionamide]	125 to 126	
Cc1ccc(CCCNC(=O)C2(c3ccc(NS(C)(=O)=O)c(F)c3)CC2)cc1C [12-5, N-[3-(3,4-Dimethylphenyl)propyl]-1-[3-fluoro-4-(methylsulfonylamino)phenyl]cyclopropanecarboxamide]	127 to 128	
CC(C)(C)c1ccc(CNC(=O)C2(c3ccc(NS(C)(=O)=O)c(F)c3)CC2)cc1 [12-8, N-(4-tert-Butylbenzyl)-1-[3-fluoro-4-(methylsulfonylamino)phenyl]cyclopropanecarboxamide]	200 to 203	
CC(NC(=S)NCc1ccc(C(C)(C)C)cc1)c1ccc(NS(C)(=O)=O)c(C(=O)O)c1 (stereo not drawn) [15-5, N-(4-t-Butylbenzyl)-N′-{1-[3-carboxy-4-(methylsulfonylamino)phenyl]ethyl}thiourea]	189 to 192	pKi (rat VR1 [1]): 5.56
C[C@H](NC(=S)NCc1ccc(C(C)(C)C)cc1)c1ccc(NS(C)(=O)=O)cc1 [16-6, N-(4-t-Butylbenzyl)-N′-{(1S)-1-[4-(methylsulfonylamino)phenyl]ethyl}thiourea]	101	pKi (rat VR1 [1]): 5.44
CC(NC(=S)NC(COC(=O)C(C)(C)C)Cc1ccccc1)c1ccc(NS(C)(=O)=O)cc1 [19-15, N-[(2R)-3-phenyl-1-pivaloyloxy-2-propyl]-N′-[(S)-α-methyl-4-(methylsulfonylamino)benzy]thiourea]	61 to 64	
CC(C)(C)c1ccc(CNC(=S)NC(C)(C)c2ccc(NS(C)(=O)=O)cc2)cc1 [21-7, N-(4-t-Butylbenzyl)-N′-{1-methyl-1-[4-(methylsulfonylamino)phenyl]ethyl}thiourea]	161 to 164	Ki (rat VR1 [2]): 1830 nM
CC(NC(=O)C=Cc1ccc(C(C)(C)C)cc1)c1ccc(NS(C)(=O)=O)c(F)c1 (stereo not drawn) [24-3, N-{1-[3-Fluoro-4-(methylsulfonylamino)phenyl]ethyl}-3-(4-tert-butylphenyl)-2-propenamide]	154 to 156	
Cc1ccc(CCC(=O)NC(C)c2ccc(NS(C)(=O)=O)c(F)c2)cc1C (stereo not drawn) [24-4, N-{1-[3-Fluoro-4-(methylsulfonylamino)phenyl]ethyl}-3-(3,4-dimethylphenyl)propanamide]	176 to 177	Ki (rat VR1 [2]): 4130 nM
N-{1-[3-Fluoro-4-(methylsulfonylamino)phenyl]ethyl}-3-(4-chlorophenyl)propenamide [24-6]		Ki (rat VR1 [2]): 5650 nM
